Drawing on patent publication US20250129048A1, “MELANOCORTIN 4 RECEPTOR ANTAGONISTS AND USES THEREOF” (Pfizer Inc., priority 2021, published 2025), this text covers Ki for 26 molecules.

hMC4R, sequence (P32245 whole entry): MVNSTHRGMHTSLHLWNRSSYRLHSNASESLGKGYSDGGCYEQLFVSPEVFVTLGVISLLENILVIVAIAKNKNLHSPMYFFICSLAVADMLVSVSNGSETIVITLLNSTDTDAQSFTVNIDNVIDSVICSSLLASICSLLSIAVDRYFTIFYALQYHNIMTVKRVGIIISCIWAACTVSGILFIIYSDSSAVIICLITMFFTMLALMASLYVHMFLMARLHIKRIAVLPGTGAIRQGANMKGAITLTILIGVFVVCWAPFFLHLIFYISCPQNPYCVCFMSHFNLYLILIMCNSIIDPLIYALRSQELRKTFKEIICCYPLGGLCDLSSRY

The experiment addresses hMC4R (Homo sapiens (Human), UniProt P32245). As to the kind of experiment: In vitro binding affinity assay using hMC4R (radioligand competition binding, CHO cell membranes). As to conditions: competition with [125I]-(Nle4, D-Phe7)-α-MSH 0.5 nM; Ki from IC50 by Cheng-Prusoff; read-out: Ki (nM) geometric mean. Here is the method: The binding affinity of test compounds at the α-melanocyte-stimulating hormone receptor (hMC4R) was assessed using a radioligand competition binding assay. Recombinant Chinese hamster ovaries (CHO) cells stably expressing hMC4R (PerkinElmer #ES-191-C) were used for competitive binding. hMC4R membranes were grown in Dulbecco's Modified Essential Medium and Ham's F-12 Medium (DMEM/F12), 10% heat inactivated fetal bovine serum (FBS), 0.4 mg/mL Geneticin and 2 mM L-glutamine. Cell membranes were bulked and frozen until the assay was performed.
Compounds were solubilized in 100% dimethyl sulfoxide (DMSO) to a concentration of 30 mM. A 10-point intermediate dilution series using half log dilutions was created in 100% DMSO with a top concentration of 0.03 mM. The serially diluted compounds were spotted as 1 μL/well, in 96-well Costar 3363 plates. The final compound range in the assay was 300 nM to 0.01 nM with a final DMSO concentration of 1%. Control wells, containing 1 μL of 2 mM ([…]) alpha-melanocyte stimulating hormone (α-MSH-Tocris #2584) was added to the non-specific binding wells and 1 μL 100% DMSO for the total binding control wells. This was followed by the addition of 80 μL of assay buffer [25 mM HEPES, 5 mM MgCl2, 2.5 mM CaCl2, 150 mM NaCl, Complete EDTA-free Protease Inhibitor Tablet (Thermo Scientific #11873580001) and 0.25% BSA]. […] The exact concentration of radioligand used for each experiment was determined by liquid scintillation counting and adjusted if necessary.
Frozen hMC4R cell membranes were thawed and Dounce homogenized. Homogenates were resuspended in assay buffer to a concentration of 2 μg per well. […] The plates were incubated for 2 hours at room temperature. Assay samples were then rapidly filtered through Unifilter-96 GF/B PEI coated filter plates using a filter plate harvester (PerkinElmer) and rinsed with ice-cold wash buffer [25 mM (4-(2-hydroxyethyl)-1-piperazineethanesulfonic acid (HEPES), 1 mM MgCl2, 2.5 mM CaCl2, and 500 mM NaCl]. Filter plates were dried overnight at room temperature. Plates were then bottom-sealed prior to the addition of 50 μL/well Ultima Gold XR scintillation fluid (PerkinElmer 6013111). Plates were then top-sealed, incubated for 60 minutes at room temperature and then the amount of radioactivity present was determined by liquid scintillation counting on a Microbeta Trilux (PerkinElmer #2450-0060).
The raw data (expressed as counts per minute) were analyzed using ActivityBase (IDBS Data Management Software). […] Equilibrium dissociation constant for inhibitor of ligand and receptor interaction (Ki) values were then calculated from the IC50 values using the Cheng-Prusoff equation: Ki=IC50/(1+([L]/Kd)), where [L] is the concentration of the radioligand used in the experiment and Kd is the affinity of the radioligand (determined in separate saturation experiments).
For orientation: Ki means the dissociation constant of the complex between target and ligand, obtained from inhibition or displacement. Regarding `COc1cc(CC(=O)N2CC[C@H](Nc3ccc(-c4cn(C)cn4)c(C)n3)C2)ccc1C` [Example 31, 2-(3-methoxy-4-methylphenyl)-1-[(3S)-3-{[6-methyl-5-(1-methyl-1H-imidazol-4-yl)pyridin-2-yl]amino}pyrrolidin-1-yl]ethan-1-one], the Ki worked out at 1 nM.

As for `Cc1nc(N[C@H]2CCN(C(=O)Cc3ccc(F)cc3)C2)ccc1-c1noc(C(F)(F)F)n1` [Example 27, 2-(4-fluorophenyl)-1-[(3S)-3-({6-methyl-5-[5-(trifluoromethyl)-1,2,4-oxadiazol-3-yl]pyridin-2-yl}amino)pyrrolidin-1-yl]ethan-1-one], the Ki is 950 nM. The value for `COc1cc([C@@H](C)C(=O)N2CC[C@H](Nc3ccc(-c4cn(C)c(C(C)(F)F)n4)c(C)n3)C2)c(C)cn1` (single isomer, unassigned) [Example 16A] was greater than 220 nM; that for `COc1cc(OC(F)F)cc([C@@H](C)C(=O)N2CC[C@H](Nc3ccc(-c4nc(C(C)(F)F)n(C)n4)c(C)n3)C2)c1` (single isomer, unassigned) [Example 40A] was 54 nM; that for `COc1cc([C@@H](C)C(=O)N2CC[C@H](Nc3ccc(-c4cn(C)c(C(C)(F)F)n4)c(C)n3)C2)c(F)cn1` (single isomer, unassigned) [Example 21A] was 190 nM.

`COc1ccc(C)c([C@@H](C)C(=O)N2CC[C@H](Nc3ccc(-c4cn(C)cn4)c(C)n3)C2)c1` (single isomer, unassigned) [Example 20A]: the Ki is 1100 nM.

Consider `COc1cc([C@@H](C)C(=O)N2CC[C@H](Nc3ccc(-c4nc(C(F)F)n(C)n4)c(C)n3)C2)nc(C)n1` (single isomer, unassigned) [Example 41A], for which the Ki is 240 nM.

With `Cc1nc(N[C@H]2CCN(C(=O)C(F)(F)c3ccc(Cl)c(Cl)c3)C2)ccc1-c1cn(C)c(C(F)F)n1` [Example 34, 2-(3,4-dichlorophenyl)-1-[(3S)-3-({5-[2-(difluoromethyl)-1-methyl-1H-imidazol-4-yl]-6-methylpyridin-2-yl}amino)pyrrolidin-1-yl]-2,2-difluoroethan-1-one], the Ki amounted to 0.88 nM.

On to `COc1cc([C@@H](C)C(=O)N2CC[C@H](Nc3ccc(-c4nc(C(F)(F)F)n(C)n4)c(C)n3)C2)c(Cl)cn1` (single isomer, unassigned) [Example 25A], for which the Ki is 88 nM. The value for `Cc1ccccc1[C@@H](C)C(=O)N1CC[C@H](Nc2ccc(-c3cn(C)c(C(C)(F)F)n3)c(C)n2)C1` (single isomer, unassigned) [Example 15A] was 150 nM; that for `COc1cc([C@@H](C)C(=O)N2CC[C@H](Nc3ccc(-c4nc(C(C)(F)F)n(C)n4)c(C)n3)C2)c(Cl)cn1` (single isomer, unassigned) [Example 37A] was 150 nM; that for `Cc1nc(N[C@H]2CCN(C(=O)[C@H](C)c3ccccc3)C2)ccc1-c1cn(C)c(C(F)F)n1` [Example 11, (2R)-1-[(3S)-3-({5-[2-(difluoromethyl)-1-methyl-1H-imidazol-4-yl]-6-methylpyridin-2-yl}amino)pyrrolidin-1-yl]-2-phenylpropan-1-one] was 1.1 nM. As for `Cc1nc(N[C@H]2CCN(C(=O)Cc3ccc(F)cc3)C2)ccc1-c1cc(C)n(C)n1` [Example 32, 1-[(3S)-3-{[5-(1,5-dimethyl-1H-pyrazol-3-yl)-6-methylpyridin-2-yl]amino}pyrrolidin-1-yl]-2-(4-fluorophenyl)ethan-1-one], the Ki came to 5.5 nM. For `COc1cc([C@](C)(F)C(=O)N2CC[C@H](Nc3ccc(-c4cn(C)c(C(F)F)n4)c(C)n3)C2)ccn1` (single isomer, unassigned) [Example 36B], the Ki was found to be 4.3 nM. The value for `Cc1nc(N[C@@H]2CCN(C(=O)Cc3ccc(F)cc3)C2(C)C)ccc1-c1cn(C)cn1` [Example 3A, 1-[(3R)-2,2-dimethyl-3-{[6-methyl-5-(1-methyl-1H-imidazol-4-yl)pyridin-2-yl]amino}pyrrolidin-1-yl]-2-(4-fluorophenyl)ethan-1-one] was 520 nM; that for `Cc1nc(N[C@H]2CCN(C(=O)C(F)(F)c3ccc(Cl)cc3)C2)ccc1-c1cn(C)c(C(F)F)n1` [Example 23, 2-(4-chlorophenyl)-1-[(3S)-3-({5-[2-(difluoromethyl)-1-methyl-1H-imidazol-4-yl]-6-methylpyridin-2-yl}amino)pyrrolidin-1-yl]-2,2-difluoroethan-1-one] was 1.1 nM. In the case of `Cc1nc(N[C@H]2CCN(C(=O)C3(c4ccccc4)CC3(F)F)C2)ccc1-c1cn(C)cn1` (stereo partly drawn) [Example 35, (2,2-difluoro-1-phenylcyclopropyl)[(3S)-3-{[6-methyl-5-(1-methyl-1H-imidazol-4-yl)pyridin-2-yl]amino}pyrrolidin-1-yl]methanone], the Ki came out at 0.95 nM.

In the case of `Cc1nc(N[C@H]2CCN(C(=O)Cc3ccc(F)c(F)c3)C2)ccc1-c1cn(C)c(C(F)F)n1` [Example 10, 1-[(3S)-3-({5-[2-(difluoromethyl)-1-methyl-1H-imidazol-4-yl]-6-methylpyridin-2-yl}amino)pyrrolidin-1-yl]-2-(3,4-difluorophenyl)ethan-1-one], the inhibition constant (Ki) turned out to be 0.31 nM. Take `Cc1nc(N[C@H]2CCN(C(=O)Cc3ccc(F)cc3)C2)ccc1-c1nc2n(n1)CC(F)(F)CO2` [Example 29, 1-[(3S)-3-{[5-(6,6-difluoro-6,7-dihydro-5H-[1,2,4]triazolo[5,1-b][1,3]oxazin-2-yl)-6-methylpyridin-2-yl]amino}pyrrolidin-1-yl]-2-(4-fluorophenyl)ethan-1-one]: the inhibitory constant (Ki) is 6.9 nM. With `Cc1nc(N[C@H]2CCN(C(=O)Cc3ccc(OC(F)(F)F)cc3)C2)ccc1-c1cn(C)c(C(F)F)n1` [Example 9, 1-[(3S)-3-({5-[2-(difluoromethyl)-1-methyl-1H-imidazol-4-yl]-6-methylpyridin-2-yl}amino)pyrrolidin-1-yl]-2-[4-(trifluoromethoxy)phenyl]ethan-1-one], the Ki was 0.46 nM. In the case of `Cc1ccccc1[C@@H](C)C(=O)N1CC[C@H](Nc2ccc(-c3cn(C)c(C(C)(F)F)n3)c(C)n2)C1` (single isomer, unassigned) [Example 15B], the Ki came to 0.83 nM.

Turning to `COc1cccc([C@@H](C)C(=O)N2CC[C@H](Nc3ccc(-c4cn(C)c(C(C)(F)F)n4)c(C)n3)C2)c1` (single isomer, unassigned) [Example 14A], the Ki was 530 nM. The value for `COc1cc([C@@H](C)C(=O)N2CC[C@H](Nc3ccc(-c4cn(C)c(C(F)F)n4)c(C)n3)C2)cc(OC)n1` (single isomer, unassigned) [Example 12B] was 7.7 nM.

`COc1cc([C@@H](C)C(=O)N2CC[C@H](Nc3ccc(-c4cn(C)c(C(F)F)n4)c(C)n3)C2)c(F)cn1` (single isomer, unassigned) [Example 38A]: the inhibitory constant (Ki) stood at 62 nM. To `COc1cc([C@@H](C)C(=O)N2CC[C@H](Nc3ccc(-c4nc(C(F)F)n(C)n4)c(C)n3)C2)ccn1` (single isomer, unassigned) [Example 33A] belongs 1100 nM; to `COc1cc([C@@H](C)C(=O)N2CC[C@H](Nc3ccc(-c4nc(C(F)F)n(C)n4)c(C)n3)C2)c(Cl)cn1` (single isomer, unassigned) [Example 24A], 20 nM.
